Tests used:
[1] = test system: XBP1s; assay: XBP1s protein levels in Ad-XBP1s-infected MEFs (western blot); format: cell-based, mouse
Method: (§1) MEF cells were from American Type Tissue Collection (ATCC). These cells were grown in Dulbecco's Modified Eagel Medium (DMEM) supplemented with 10% fetal bovine serum (FBS), 10 U/ml penicillin and 1 μg/ml streptomycin at 37° C. and 5% CO2. Fao cells were maintained in RPMI 1640 medium (Invitrogen) supplemented with 10% fetal bovine serum (FBS), 10 U/ml penicillin and 1 μg/ml streptomycin.
(§2) Adenovirus expressing XBP1s T48A, XBP1s S61A, XBP1s T48A/S61A and MKK6Glu were produced with ViraPower Adenoviral Expression System (Invitrogen) according to manufacturer's instruction. Briefly, pAD-XBP1s T48A, pAD-XBP1s S61A, pAd-XBP1s T48A/S61A and pAd-MKK6Glu were linearized by restriction endonuclease digestion with PacI and transfected to 293A cells by Lipofectamine. The media was changed with fresh media every other day until the cytopathic effect was observed. When cytopathic effect reached to 80%, cells were collected by centrifugation. The pellet was resuspended in PBS and subjected to freezing and thawing cycles at −80° C. and 37° C. for 4 times. The supernatant containing the virus was prepared by centrifugation at 4,000 rpm for 20 min at room temperature. Ad-XBP s and Ad-Cre were generated as described previously (Ozcan, L., et al. (2009) Cell metabolism 9:35-51). For infection, cells were incubated with adenovirus in reduced volume of medium containing 1% FBS and antibiotics. Cells were gently rocked every 15 min for 1 h to increase efficiency of infection, and then fresh medium were added and cells were incubated for additional 15 h or 23 h.
Cells were lysed in lysis buffer (25 mM Tris-HCl, pH 7.4; 10 mM NaF; 10 mM Na4P207; 2 mM Na3VO4; 1 mM EGTA; 1 mM EDTA; 1% NP-40; 10 μg/ml Leupeptin; 10 μg/ml Aprotinin; 1 mM PMSF and 20 nM Okadaic acid). After 20 min-rotation at 4° C., cell lysates were centrifuged at 13,200 rpm for 20 min at 4° C. Supernatants were collected and protein concentration was quantified by using Protein Assay Kit (Bio-Rad). The concentrations of protein were normalized with lysis buffer to have equivalent amounts of protein and volume. Protein was denatured by boiling at 100° C. for 5 min in Laemmli buffer. The lysates were cooled to room temperature before loading for western blot analysis.
Western blot analysis was performed as previously described (Ozcan, L., et al. (2009) Cell metabolism 9:35-51). Samples from cell lysates or tissue lysates were resolved by SDS-PAGE and then transferred to polyvinylidene fluoride (PVDF) membrane. After 1 h blocking at room temperature using 10% blocking reagent (Roche), membrane was incubated overnight with primary antibody in Tris-buffered saline solution/Tween (TBST) containing 10% blocking reagent at 4° C. After the incubation, membrane was washed three times in TBST and incubated with secondary antibody for 1 h at room temperature. After three-time washing in TBST, membrane was developed using a chemiluminescence assay system (Roche) and exposed to Kodak films. Relative protein levels were quantified by Image J program.

[2] = test system: XBP1s; assay: XBP1s levels in Ad-XBP1s-infected Fao cells; format: cell-based; conditions: Ad-XBP1s-infected Fao cells (rat hepatoma)
Method: as §1
as §2, with “Ad-XBP s and Ad-Cre were generated as described previously (Ozcan, L., et al. (2009) Cell metabolism 9:35-51). For infection, cells were incubated with adenovirus in reduced volume of medium containing 1% FBS and antibiotics. Cells were gently rocked every 15 min for 1 h to increase efficiency of infection, and then fresh medium were added and cells were incubated for additional 15 h or 23 h.” left out
Western blot analysis was performed as previously described (Ozcan, L., et al. (2009) Cell metabolism 9:35-51). […] Relative protein levels were quantified by Image J program.

[3] = test system: XBP1s; assay: FBS-induced XBP1s nuclear translocation in starved cells; format: cell-based, mouse; conditions: 16 h starved cells, inhibitor 10 μM before 10% FBS
Method: XBP1s is generated in the liver when an animal is refed after a fasting period (Park, S. W., et al. (2010) Nature Med 16:429-437), likely mainly due to increased metabolic overloading. To create a metabolic overloading model in cells, following a 16 h starvation in medium without fetal bovine serum (FBS), cells were reincubated for 15, 30 and 60 minutes with medium containing 10% FBS, following which total and nuclear proteins or mRNA were isolated and used to analyze various parameters, including p38 MAPK activation, XBP1s nuclear migration, and splicing. When the cells were starved, then stimulated with medium containing 10% FBS, there was a robust increase in XBP1s splicing and nuclear translocation, as well as in activation of p38 MAPK (FIG. 10A). […] The same experiment was then repeated in p38α^−/− and MKK3,6^−/− cells. […] Moreover, FBS-induced XBP i s nuclear translocation was severely impaired in the MKK3,6^−/− cells (FIG. 10C).

[4] = test system: p38 MAPK; assay: Fasting/re-feeding of lean mice treated with p38 MAPK inhibitor; format: in vivo, mouse; conditions: 2 mg/kg/day intraperitoneally three days
Method: For liver tissue, a kit from Thermo Scientific (Rockford, Ill.) was used according to the manufacturer's instruction. Liver tissues were cut into small pieces, washed with PBS, and separated from PBS by centrifugation at 500×g for 5 minutes. Collected tissues were resuspended by company-supplied CER I buffer and homogenized with a Dounce homogenizer. Homogenized tissues were vortexed and incubated on ice for 10 minutes. Following CER II buffer addition, tissues were vortexed for 5 seconds, incubated for 1 minute on ice, vortexed again, and then centrifuged for 5 minutes at maximum speed in a microcentrifuge. The supernatant (cytoplasmic fraction) was saved for later analysis. The pellets were resuspended with supplied NER buffer and undergone a series of multiple vortexing (15 seconds) and incubation on ice (10 minutes) for a total of 40 minutes. After 10-minute centrifugation, the supernatant (nuclear fraction) was collected and analyzed with immunoblotting.
Tissues were homogenized with a bench-top homogenizer (Polytron, PT2100) in ice-cold tissue lysis buffer (25 mM Tris-HCl, pH 7.4; 100 mM NaF; 50 mM Na4P207; 10 mM Na3VO4; 10 mM EGTA; 10 mM EDTA; 1% NP-40; 10 μg/ml Leupeptin; 10 μg/ml Aprotinin; 2 mM PMSF and 20 nM Okadaic acid). After homogenization, lysates were rotated for 1 h at 4° C. and then subjected to centrifugation at 13,200 rpm for 20 min at 4° C. The lipid layer was removed and the supernatant was transferred into Eppendorf tubes for centrifugation. This process was repeated for 2 times to get rid of lipid completely. Protein concentration was quantified by using Protein Assay Kit (Bio-Rad). Equivalent protein concentration in each sample was prepared and boiled at 100° C. for 5 min in Laemmli buffer. The lysates were cooled to room temperature before loading for western blot analysis.

[5] = test system: XBP1s; assay: Co-expression of kinase constructs with XBP1s in transfected cells; format: cell-based; conditions: p38 MAPK inhibitor 10 μM
Text: To unravel the molecular mechanisms underlying the above observations, several different approaches were taken to explore whether activation of JNK, which is one of the most dominant signaling elements in SAPK signaling, affects XBP1s levels and nuclear translocation. […] It is known that MAPK kinase kinase (MKK) 4 and 7 are upstream kinases responsible for JNK activation (Tournier, C., et al. (2001) Genes Dev 15:1419-1426; Brancho, D., et al. (2003) Genes Dev 17:1969-1978) and anisomycin or TNFα cannot activate JNK in MKK4 and 7 double knock out cells (MKK4,7^−/−) (Tournier, C., et al. (2001) Genes Dev 15:1419-1426; Schaeffer, H. J. & Weber, M. J. (1999) Mol Cell Biol 19:2435-2444). In order to determine whether XBP1s can be regulated by anisomycin treatment in MKK4,7^−/− cells, these cells, along with their controls, were treated with anisomycin after XBP is expression. […] Furthermore, the experiments were repeated in JNK1,2^−/− and MKK4,7^−/− cells with TNFα. […] Finally, an MKK7-JNK1 fusion protein, previously shown to be a specific activator of JNK (Lei, K., et al. (2002) Mol Cell Biol 22:4929-4942), was used to investigate whether activation of JNK alone can have effect on XBP1s.
A constitutively active form of MKK6 (MKK6Glu), one of the upstream kinases of p38 MAPK, was previously generated by mutation of Ser207 and […] to glutamate. […]

[6] = test system: XBP1s; assay: Cytoplasmic and nuclear XBP1s protein in cells; format: cell-based, mouse; conditions: mutant XBP1s expressed in cells, anisomycin 25 ng/ml, vs WT
Method: Cytoplasmic and nuclear protein fractions were extracted from cells by using nuclear protein extraction kit from Active Motif (Carlsbad, Calif.). Cells were maintained in 10 cm tissue culture dishes for nuclear/cytoplasmic extraction. After removal of the media, cells were washed with ice-cold phosphate buffered saline (PBS) containing phosphatase inhibitors. Subsequently, 3 ml of ice-cold PBS with phosphatase inhibitors was added and then cells were scrapped out of the dish. Collected cells were separated from PBS by centrifugation for 5 minutes at 500 rpm and resuspended with 500 μl of 1× hypotonic buffer. After 15-minute incubation in hypotonic buffer on ice, 25 μl of supplied detergent was added and cells were vortexed 10 seconds. Cells were centrifuged for 30 seconds at 14,000×g and supernatant (cytoplasmic fraction) was saved for further analysis. Remaining pellet, which contains nuclei, were resuspended with 50 μl of provided complete lysis buffer with 1 mM dithiothreitol (DTT), vortexed 10 seconds, and incubated for 30 minutes on ice. After 30-second vortexing and 10-minute centrifugation at 14,000×g, the supernatant was collected and analyzed as nuclear fraction.

TNFα
XBP1s protein levels ([1]; Ad-XBP1s-infected MEFs, increasing doses, two hours): markedly increased XBP1s protein levels | XBP1s protein levels ([1]; JNK1,2−/− cells): significant increase in XBP1s levels | XBP1s levels ([1]; MKK4,7−/− cells): significant increase in XBP1s levels | XBP1s levels [2]: dramatically upregulating their XBP1s levels

CCOc1nc(NC(=O)Cc2cc(OC)ccc2OC)cc(N)c1C#N [JNK inhibitor VIII]
effect on anisomycin-mediated upregulation of XBP1s protein levels ([1]; JNK inhibitor 10 μM 30 minutes, then anisomycin 25 ng/ml two hours): no effect

C[S+]([O-])c1ccc(-c2nc(-c3ccncc3)c(-c3ccc(F)cc3)[nH]2)cc1 (stereo not drawn) [SB203580]
anisomycin-induced increase in XBP1s levels ([1]; SB203580 10 μM 30 minutes, then anisomycin 25 ng/ml two hours): completely abolished | FBS-induced XBP1s nuclear translocation [3]: completely eliminated XBP1s nuclear translocation | XBP1s splicing [3]: without altering XBP1s splicing | GRP78 expression increase in liver after re-feeding [4]: but not in the inhibitor-treated group | XBP1s mRNA levels in the liver of re-fed mice [4]: significantly increased | ATF2 phosphorylation ([4]; lean C57BL6 mice): dramatic reduction in phosphorylation | XBP1s nuclear translocation in the liver after re-feeding ([4]; lean C57BL6 mice, starved 24 hours, refed one hour): completely absent | effect of MKK6Glu on XBP1s [5]: blocked the effect of MKK6Glu on XBP1s

B1: T48A: mutant XBP1s with Thr48 residue mutated to alanine (protein)
chain: MVVVAAAPSAATAAPKVLLLSGQPASGGRALPLMVPGPRAAGSEASGAPQARKRQRLTHLSPEEKALRRKLKNRVAAQTARDRKKARMSELEQQVVDLEEENHKLQLENQLLREKTHGLVVENQELRTRLGMDTLDPDEVPEVEAKGSGVRLVAGSAESAAGAGPVVTSPEHLPMDSDTVASSDSESDILLGILDKLDPVMFFKCPSPESASLEELPEVYPEGPSSLPASLSLSVGTSSAKLEAINELIRFDHVYTKPLVLEIPSETESQTNVVVKIEEAPLSSSEEDHPEFIVSVKKEPLEDDFIPELGISNLLSSSHCLRPPSCLLDAHSDCGYEGSPSPFSDMSSPLGTDHSWEDTFANELFPQLISV
decrease of XBP1s nuclear translocation [6]: about 49%

B2: S61A: amino acid substitution mutant XBP1s at Ser61 (protein)
chain: MVVVAAAPSAATAAPKVLLLSGQPASGGRALPLMVPGPRAAGSEASGTPQARKRQRLTHLAPEEKALRRKLKNRVAAQTARDRKKARMSELEQQVVDLEEENHKLQLENQLLREKTHGLVVENQELRTRLGMDTLDPDEVPEVEAKGSGVRLVAGSAESAAGAGPVVTSPEHLPMDSDTVASSDSESDILLGILDKLDPVMFFKCPSPESASLEELPEVYPEGPSSLPASLSLSVGTSSAKLEAINELIRFDHVYTKPLVLEIPSETESQTNVVVKIEEAPLSSSEEDHPEFIVSVKKEPLEDDFIPELGISNLLSSSHCLRPPSCLLDAHSDCGYEGSPSPFSDMSSPLGTDHSWEDTFANELFPQLISV
decrease of XBP1s nuclear translocation [6]: about 79%
